Measured values published in patent US20240425497A1, “Cbl-b Inhibitors and Methods of Use Thereof” (ARCUS BIOSCIENCES, INC., priority 2023, published 2024).

How the values were obtained:
Cbl-b = Cbl-b (Homo sapiens (Human), UniProt Q13191); experiment: Cbl-b probe displacement HTRF binding assay; conditions: 0.4 nM biotinylated Cbl-b, 150 nM BODIPY probe
How it was run: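 Biotinylated Cbl-b (0.4 nM final) was preincubated 60 min at room temperature with compound (20-point 1:2 series, top 10 μM final), then BODIPY probe (150 nM final) was added for 15 min before streptavidin-terbium cryptate. Buffer was 20 mM Hepes, 150 mM NaCl, 0.01% Triton X-100, 0.5 mM TCEP, 0.01% BSA; IC50 was derived from a four-parameter fit of HTRF signal loss.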

Jurkat cells = experiment: IL-2 secretion assay in CD3/CD28-activated Jurkat cells (AlphaLISA); type: cell-based, human; conditions: Homo sapiens, CD3/CD28 activation, 24 h
How it was run: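 Jurkat cells in Opti-MEM (50,000/well) preincubated 1 h at 37° C with compound (16-point 1:2 dilution, final 10 μM to […]), then activated with CD3/CD28 T cell activator for 24 h at 37° C. Secreted IL-2 in supernatant quantified by AlphaLISA; EC50 from 4-parameter logistic fit.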

Cbl-b, sequence (Q13191 whole entry, species assumed): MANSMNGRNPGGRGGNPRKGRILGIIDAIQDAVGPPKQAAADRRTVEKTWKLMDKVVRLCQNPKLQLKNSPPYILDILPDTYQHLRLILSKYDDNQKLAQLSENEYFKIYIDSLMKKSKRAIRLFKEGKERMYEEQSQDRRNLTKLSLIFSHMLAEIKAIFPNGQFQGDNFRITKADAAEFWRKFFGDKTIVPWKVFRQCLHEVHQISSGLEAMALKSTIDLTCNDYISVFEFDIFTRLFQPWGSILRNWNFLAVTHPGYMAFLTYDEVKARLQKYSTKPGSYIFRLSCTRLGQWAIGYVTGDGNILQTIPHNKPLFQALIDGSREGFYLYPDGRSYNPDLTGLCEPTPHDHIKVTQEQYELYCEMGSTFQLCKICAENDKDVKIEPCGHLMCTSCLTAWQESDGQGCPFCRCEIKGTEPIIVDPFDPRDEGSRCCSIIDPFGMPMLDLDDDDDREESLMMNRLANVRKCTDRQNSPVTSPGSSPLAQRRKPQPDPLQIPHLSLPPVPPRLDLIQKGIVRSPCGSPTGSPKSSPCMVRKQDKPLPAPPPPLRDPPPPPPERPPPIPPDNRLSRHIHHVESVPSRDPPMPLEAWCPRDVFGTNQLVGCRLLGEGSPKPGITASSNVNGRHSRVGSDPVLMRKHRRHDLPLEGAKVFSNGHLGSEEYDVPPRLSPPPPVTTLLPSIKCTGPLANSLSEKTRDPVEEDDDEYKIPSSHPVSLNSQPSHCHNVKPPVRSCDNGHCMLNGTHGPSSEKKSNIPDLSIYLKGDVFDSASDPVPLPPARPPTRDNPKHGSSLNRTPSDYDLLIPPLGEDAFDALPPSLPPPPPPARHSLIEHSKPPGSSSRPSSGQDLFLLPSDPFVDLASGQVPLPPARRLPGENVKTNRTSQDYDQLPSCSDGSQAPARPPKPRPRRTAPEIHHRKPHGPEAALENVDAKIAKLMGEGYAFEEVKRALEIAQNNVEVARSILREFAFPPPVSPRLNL

IC50 (Cbl-b): 100 to 1000 nM
EC50 (Jurkat cells): 100 to 1000 nM
SMILES: C[C@H]1CCCN(Cc2cc3c(C#N)cn(-c4cncc(-c5ccc(F)cc5C(=O)N5CC(F)C5)c4)c(=O)c3[nH]2)C1 [Example 24, 2-{[(S)-3-methyl-1-piperidyl]methyl}-6-(5-{4-fluoro-2-[(3-fluoro-1-azetidinyl)carbonyl]phenyl}-3-pyridyl)-7-oxo-1,6-dihydro-1,6-diaza-4-indenecarbonitrile]
